Where a SMILES comes first, the peptide text is derived from it. The star is where a group is joined. Cbz = O=C(OCc1ccccc1)*; CH2F = FC*
Assays:
A549 cells = assay: FAS-induced apoptosis (activating anti-FAS antibody CH-11) in A549 cells, ISEL / nuclear fragmentation; format: cell-based, human; settings: CH-11 200 ng/ml; lisinopril 500 ng/ml, saralasin 5 mg/ml
primary rat AEC = assay: Angiotensin II-induced apoptosis in primary rat AEC (nuclear fragmentation, PI); format: cell-based; settings: ANGII 5.0 uM; saralasin 50 ug/ml, lisinopril 500 ng/ml
Source text: Cell Culture. The human lung adenocarcinoma cell line A549 was obtained from American Type Culture Collection and cultured in Ham's F12 medium supplemented with 10% fetal bovine serum (FBS). Primary alveolar epithelial cells were isolated from adult male Wistar rats as described in Uhal et al., Am. J. Physiol. Suppl. (Oct.) 261:110-117 (1991) and Uhal et al., Am. J. Physiol. 269:L819-L828 (1995). The primary cells were studied at day two of culture, a time at which they are type II cell-like by accepted morphologic and biochemical criteria, see Uhal, Am. J. Physiol. 272:L1031-L1045 (1997). […] J. Physiol. Suppl. (October) 261:110-117 (1991). All cells were seeded in 24-well or 6-well chambers, and all experiments were conducted at subconfluent densities of 80-90% in serum-free Ham's F12 medium. Test reagents were diluted with Ham's F12 medium and were applied for 20 h at 37° C. in a 5% CO2 incubator.
Detection of Apoptosis. Detection of apoptotic cells with propidium iodide (PI) was conducted as described in Uhal, et al., Am. J. Physiol. 275:L1013-1017 (1998) following digestion of ethanol-fixed cells with DNAse-free RNAse in PBS containing 5 ug/ml PI. Assay of Annexin V binding by flow cytometry was performed essentially as described for human lung fibroblasts in Uhal, et al., Am. J. Physiol. 275:L998-L1005 (1998) after trypsinization of cells from culture vessels. Assay of Caspase-3 activity was performed on viable suspension cultures as reported in Uhal, et al., Am. J. Physiol. 275:L1013-1017 (1998). In all assays, detached cells were retained by centrifugation of the culture vessels during fixation with 70% ethanol, or by retention of culture media and recovery by centrifugation before assay.
For microscopy, cells were cultured on glass cover slips, incubated with test reagents and fixed with 70% ethanol. The fixed cells were immunolabeled overnight at 4° C. with monoclonal antibodies to cytokeratins 7 and 19 (Chemicon International, Temecula, Calif.), and then for one hour at 37° C. with anti-mouse IgG-rhodamine and DNAse-free RNAse (Boehringer Mannheim, Indianapolis, Ind.) The cover slips were then rinsed in distilled water three times and mounted under Fluoromount Solution (Southern Biotechnology Associates, Birmingham, Ala.) containing 5 ug/ml propidium iodide. Photomicroscopy was performed as described in Uhal, et al., Am. J. Physiol. 275:L1013-1017 (1998).
Apoptosis in alveolar epithelial cells was quantitated by fluorescence detection of chromatin condensation and nuclear fragmentation in alcohol-fixed cells stained with propidium iodide. See Uhal, et al., Am. J. Physiol. 275:L1013-1017 (1998). […] After 20 h, the culture vessel was centrifuged to retain detached cells and labeled with anticytokeratin antibodies and propidium iodide. […] Double labeling with PI and monoclonal antibodies to cytokeratins 7 and 19 identified cells with both apoptotic nuclear morphology and positive anticytokeratin immunoreactivity.

adult male Wistar rats = settings: for lung lesions, histology / total lung collagens by hydroxyproline assay: 14 days post-bleomycin
Protocol: Adult male Wistar rats were given intratracheal instillations of 8 U/kg bleomycin sulfate (BLEO) or sterile saline. […] Lung fibrosis was assessed by picrosirius red (PR) quantitation of lung collagen and by hydroxyproline (HP) assay at 14 days after BLEO administration. At the same time point, fragmented DNA in lung epithelial cells was detected by in situ end labeling (ISEL).
Animals and Induction of Pulmonary Fibrosis. Forty adult male Wistar rats, 175-200 grams, were divided into four groups; three groups received a single intratracheal instillation of 8 units per kilogram of bleomycin sulfate (BLEO) in sterile saline. Two days before the administration of BLEO, one group received captopril in the drinking water at a concentration of 500 mg/liter. […] Control animals (NORM) received administrations of the vehicles only.
Immediately before sacrifice, animals were given intraperitoneal injections of sodium pentobarbital and the trachea was cannulated. The middle right lobe was ligated at the hilus, was excised distal to the ligation and was immediately frozen in liquid N2 for hydroxyproline assay of total collagen (see below). The remaining lung tissues were carefully removed and were instilled with 4% paraformaldehyde in PBS at 20 cm H2O constant pressure, then immersed in the same fixative for two hours. The fixed tissues were washed with PBS three times for 15 minutes and were then embedded in paraffin. Five-micron sections of lung were deparaffinized by passing through xylene, xylene:alcohol 1:1, 100% alcohol and 70% alcohol for 10 minutes each. Ethanol was removing by rinsing with distilled water.
In situ end-labeling (ISEL) of fragmented DNA. ISEL was conducted by a modification of the method of Mundle et al., Cell Death and Differentiation, 1: 117-122 (1994). Briefly, ethanol was removed from deparaffinized lung sections by rinsing in distilled water for at least 10 minutes. The slides were then placed in 3% hydrogen peroxide (Sigma Chemical, St. Louis, Mo.) for 30 minutes at 20° C., rinsed with PBS, and incubated with Proteinase K (Sigma Chemical, St. Louis, Mo.) in saline sodium citrate solution (SSC) (0.3 M NaCi and 30 mM sodium citrate in water, pH 7.0) for 15 minutes at 37° C. Samples were rinsed once in water, three times in 0.15 M PBS for 4 minutes each, and then incubated in SSC at 80° C. for 20 minutes. After four rinses in PBS and four rinses in Buffer A (50 mM Tris/HCl, 5 mM MgCl, 10 mM β-mercaptoethanol and 0.005% BSA in water, pH 7.5), the sections were incubated at 18° C. for two hours with ISEL solution (0.001 mM digoxigenin-dUTP, 20 U/ml DNA Polymerase 1 and 0.01 mM each of dATP, dCTP and dGTP in Buffer A). The sections were then rinsed thoroughly five times with Buffer A and three times with PBS. Detection of incorporated dUTP was achieved by incubation for two hours at 37° C. with AP-conjugated anti-digoxigenin (Boerhinger Mannheim, Indianapolis, Ind.) at a 1:400 dilution. Bound AP-antibody complexes were detected with the Fast Blue chromogen system and the sections were mounted with Fluoromount Solution (Southern Biotechnology, Birmingham, Ala.).
Identification of Collagen. Collagens were localized through staining of lung sections by the picrosirius red technique, see Pick et al., Am. J. Pathol. 134:365-371 (1989), which has absolute specificity for collagen. Briefly, sections deparaffinized with xylenes were rehydrated through a descending series of ethanols to distilled water. The hydrated sections were immersed in 0.2% aqueous phosphomolybdic acid for 2 minutes, rinsed in distilled water and then stained for 110 minutes with 0.1% Sirius Red F3BA (Pfal and Bauer, Stamford, Conn.) in saturated aqueous picric acid, pH 2.0. The sections were washed for 2 minutes in 0.01 N HCl, rinsed for 45 seconds in 70% ethanol, dehydrated in three changes of absolute alcohol, cleared in xylene and mounted in a nonaqueous mounting medium.

Compound | inhibition of FAS-induced apoptosis (A549 cells) | inhibition of ANGII-induced apoptosis of primary rat AEC (primary rat AEC) | lung lesions, histology (adult male Wistar rats) | total lung collagens by hydroxyproline assay (adult male Wistar rats) | also measured
NCCCC[C@H](N[C@@H](CCc1ccccc1)C(=O)O)C(=O)N1CCC[C@H]1C(=O)O [lisinopril] | 61% | did not block |  |  | 
COc1ccc2c(c1OCc1ccccc1)C[C@@H](C(=O)O)N(C(=O)C(c1ccccc1)c1ccccc1)C2 [PD126055] |  | unable to significantly inhibit |  |  | 
CNCC(=O)N[C@@H](CCCN=C(N)N)C(=O)N[C@H](C(=O)N[C@@H](Cc1ccc(O)cc1)C(=O)N[C@H](C(=O)N[C@@H](Cc1cnc[nH]1)C(=O)N1CCC[C@H]1C(=O)N[C@@H](C)C(=O)O)C(C)C)C(C)C [saralasin] | 71% | completely inhibited |  |  | 
COC(=O)C[C@H](NC(=O)[C@H](C)NC(=O)[C@@H](NC(=O)OCc1ccccc1)C(C)C)C(=O)CF [ZVAD-fmk, N-benzylcarboxy-Val-Ala-Asp-[O-Me]-CH2F] (Cbz-Val-Ala-Asp(OMe)-CH2F) |  |  | much less extensive | inhibited lung collagen accumulation | inhibition of accumulation of lung collagens (adult male Wistar rats; captopril 500 mg/liter drinking water, ZVAD-fmk 1 mg per kg daily i.p., 14 days after BLEO): 85%
CCc1nc2c(C)cc(C)nc2n1Cc1ccc(-c2ccccc2-c2nn[nH]n2)cc1 [L158809] |  | could block |  |  | 
C[C@H](CS)C(=O)N1CCC[C@H]1C(=O)O [captopril] |  |  | much less extensive | inhibited lung collagen accumulation | inhibition of ISEL labeling in AEC (adult male Wistar rats; 14 days after BLEO): 99%; inhibition of ISEL labeling in airway epithelial cells (adult male Wistar rats; 14 days after BLEO): 67%

From patent publication US20030113330A1, “Methods for treating pulmonary fibrosis” (priority 1999, published 2003)
